# Measurements published in patent US10632125B2, “MTH1 inhibitors for treatment of inflammatory and autoimmune conditions” (THOMAS HELLEDAYS STIFTELSE FÖR MEDICINSK FORSKNING, priority 2014, dated 2020).
# Molecular target: MTH1 (Homo sapiens, UniProt P36639)
# Assay: MTH1 enzymatic assay (malachite green, coupled to pyrophosphatase)
# Format: biochemical
# Conditions: dGTP 100 μM, MTH1 6 nM; 96- or 384-well format; read-out: IC50
# Procedure: MTH1 catalyzes the hydrolysis of dGTP to dGMP and PPi. By coupling the reaction to pyrophosphatase added in excess PPi is converted to Pi that can be detected by using the malachite green assay reagent. […] 96-well method: Briefly, the compound to be analyzed is diluted in DMSO in a 1:3 dilution series generating 12 different compound concentrations giving a final DMSO concentration of 1% in the assay well. MTH1 diluted in assay buffer (100 mM Tris-acetate, 40 mM NaCl, 10 mM magnesium acetate, 1 mM DTT and 0.005% Tween 20) fortified with E. coli pyrophosphatase (0.2 U/ml) is added to a final concentration of 6 nM. dGTP diluted in assay buffer is added to a final concentration of 100 μM. The reaction mixture is incubated for 15 minutes at 22° C. To 100 μl reaction mixture, 25 μl Malachite green assay regent (0.095% Malachite green in 17% H2SO4, 1.5% Ammonium molybdate, 0.17% Tween 20) is added, followed by incubation with shaking for 15 minutes at 22° C. The absorbance of the assay plate is read at 630 nm using a Hidex Sense Multilabel plate reader. The IC50 value is determined by fitting a dose response curve to the data points using nonlinear regression analysis and the equation Y=Bottom+(Top-Bottom)/(1+10^((Log IC50−X)*HillSlope)), where Y is the read absorbance at 630 nm and X is log [compound].
# 384-Well Method: The compounds to be tested are nano-dispensed, in 11 concentrations, directly in assay plates, with a final DMSO concentration <1%. The protocol and the reaction mixture are the same as for the 96-well assay, with a total reaction volume of 50 μl/well to which 10 μl of Malachite green reagent is added. All additions to the assay plates are made with multidrop.
row,SMILES,IC50
1,"Cc1cccc(-c2cc(NCCc3ccccc3)nc(N)n2)c1C [Example 118, 6-(2,3-dimethylphenyl)-4-N-(2-phenylethyl)pyrimidine-2,4-diamine]",< 200 nM
2,"Cc1cccc(-c2nc(N)nc3c2CCCN3)c1C [Example 121, 4-(2,3-dimethylphenyl)-5H,6H,7H,8H-pyrido[2,3-d]pyrimidin-2-amine]",< 200 nM
3,"Nc1nc2c(c(-c3cccc(Cl)c3Cl)n1)CCCN2 [Example 122, 4-(2,3-dichlorophenyl)-5H,6H,7H,8H-pyrido[2,3-d]pyrimidin-2-amine]",< 200 nM
4,"Nc1nc2c(c(-c3cn(S(=O)(=O)c4ccccc4)c4ccccc34)n1)CCCN2 [Example 123, 4-[1-(benzenesulfonyl)-1H-indol-3-yl]-5H,6H,7H,8H-pyrido[2,3-d]pyrimidin-2-amine]",< 200 nM
5,"CNc1cc(-c2cc(F)cc(F)c2)nc(N)n1 [Example 124, 6-(3,5-difluorophenyl)-4-N-methylpyrimidine-2,4-diamine]",< 200 nM
6,"COc1ccc(CCNc2cc(-c3cccc(C)c3C)nc(N)n2)cc1 [Example 125, 6-(2,3-dimethylphenyl)-4-N-[2-(4-methoxyphenyl)ethyl]pyrimidine-2,4-diamine]",< 200 nM
7,"Cc1cccc(-c2cc(NCCc3ccc(Cl)cc3)nc(N)n2)c1C [Example 128, 4-N-[2-(4-chlorophenyl)ethyl]-6-(2,3-dimethylphenyl)pyrimidine-2,4-diamine]",< 200 nM
8,"Cc1cccc(-c2cc(NCC(C)c3ccccc3)nc(N)n2)c1C (stereo not drawn) [Example 130, 6-(2,3-dimethylphenyl)-4-N-(2-phenylpropyl)pyrimidine-2,4-diamine]",< 200 nM
9,"Cc1cccc(-c2cc(NCCNc3ccccc3)nc(N)n2)c1C [Example 133, 6-(2,3-dimethylphenyl)-4-N-[2-(phenylamino)ethyl]pyrimidine-2,4-diamine]",< 200 nM
10,"Cc1cccc(-c2cc(NCCc3c[nH]c4ccccc34)nc(N)n2)c1C [Example 134, 6-(2,3-dimethylphenyl)-4-N-[2-(1H-indol-3-yl)ethyl]pyrimidine-2,4-diamine]",< 200 nM
11,"Cc1cccc(-c2cc(NCCN3CCNC3=O)nc(N)n2)c1C [Example 136, 1-(2-{[2-amino-6-(2,3-dimethylphenyl)pyrimidin-4-yl]amino}ethyl)imidazolidin-2-one]",< 200 nM
12,"Cc1cccc(-c2cc(NCCCN3CCCC3=O)nc(N)n2)c1C [Example 137, 1-(3-{[2-amino-6-(2,3-dimethylphenyl)pyrimidin-4-yl]amino}propyl)pyrrolidin-2-one]",< 200 nM
13,"CNc1cc(-c2cc(C)c(O)c(C)c2)nc(N)n1 [Example 138, 4-[2-amino-6-(methylamino)pyrimidin-4-yl]-2,6-dimethylphenol]",< 200 nM
14,"CNc1cc(-c2ccc(O)c(OC)c2)nc(N)n1 [Example 139, 4-[2-amino-6-(methylamino)pyrimidin-4-yl]-2-methoxyphenol]",< 200 nM
15,"CNc1cc(-c2ccc(O)c(F)c2)nc(N)n1 [Example 140, 4-[2-amino-6-(methylamino)pyrimidin-4-yl]-2-fluorophenol]",< 200 nM
16,"CNc1cc(-c2ccccc2C)nc(N)n1 [Example 143, 4-N-methyl-6-(2-methylphenyl)pyrimidine-2,4-diamine]",< 200 nM
17,"CNc1cc(-c2ccc3[nH]ncc3c2C)nc(N)n1 [Example 145, 4-N-methyl-6-(4-methyl-1H-indazol-5-yl)pyrimidine-2,4-diamine]",< 200 nM
18,"CNc1cc(-c2cccc(C)c2)nc(N)n1 [Example 147, 4-N-methyl-6-(3-methylphenyl)pyrimidine-2,4-diamine]",< 200 nM
19,"Cc1ccc(S(=O)(=O)n2cc(-c3cc(NC4CCC4)nc(N)n3)c3ccccc32)cc1 [Example 152, 4-N-cyclobutyl-6-[1-(4-methylbenzenesulfonyl)-1H-indol-3-yl]pyrimidine-2,4-diamine]",< 200 nM
20,"Cc1cccc(-c2cc(NC3CCCC3)nc(N)n2)c1C [Example 153, 4-N-cyclopentyl-6-(2,3-dimethylphenyl)pyrimidine-2,4-diamine]",< 200 nM
21,"CNc1cc(-c2cn(S(=O)(=O)c3ccc(C(F)(F)F)cc3)c3ccccc23)nc(N)n1 [Example 155, 4-N-methyl-6-{1-[4-(trifluoromethyl)benzenesulfonyl]-1H-indol-3-yl}pyrimidine-2,4-diamine]",< 200 nM
22,"Cc1cccc(-c2cc(NC3CCCCC3)nc(N)n2)c1C [Example 156, 4-N-cyclohexyl-6-(2,3-dimethylphenyl)pyrimidine-2,4-diamine]",< 200 nM
23,"CCNc1cc(-c2cccc(C)c2C)nc(N)n1 [Example 158, 6-(2,3-dimethylphenyl)-4-N-ethylpyrimidine-2,4-diamine]",< 200 nM

row,SMILES,IC50
1,"Cc1ccc(S(=O)(=O)n2cc(-c3cc(NC(C)C)nc(N)n3)c3ccccc32)cc1 [Example 163, 6-[1-(4-methylbenzenesulfonyl)-1H-indol-3-yl]-4-N-(propan-2-yl)pyrimidine-2,4-diamine]",< 200 nM
2,"CNc1cc(-c2coc3ccccc23)nc(N)n1 [Example 170, 6-(1-benzofuran-3-yl)-4-N-methylpyrimidine-2,4-diamine]",< 200 nM
3,"CNc1cc(-c2csc3ccccc23)nc(N)n1 [Example 172, 6-(1-benzothiophen-3-yl)-4-N-methylpyrimidine-2,4-diamine]",< 200 nM
4,"CC(C)Nc1cc(-c2cccc(Cl)c2Cl)nc(N)n1 [Example 176, 6-(2,3-dichlorophenyl)-4-N-(propan-2-yl)pyrimidine-2,4-diamine]",< 200 nM
5,"Nc1nc(NCC2CC2)cc(-c2cccc(Cl)c2Cl)n1 [Example 177, 4-N-(cyclopropylmethyl)-6-(2,3-dichlorophenyl)pyrimidine-2,4-diamine]",< 200 nM
6,"CNc1cc(-c2cc(Br)ccc2OC)nc(N)n1 [Example 183, 6-(5-bromo-2-methoxyphenyl)-4-N-methylpyrimidine-2,4-diamine]",< 200 nM
7,"CNc1cc(-c2cc(C)ccc2C)nc(N)n1 [Example 184, 6-(2,5-dimethylphenyl)-4-N-methylpyrimidine-2,4-diamine]",< 200 nM
8,"CNc1cc(-c2cccnc2C(F)(F)F)nc(N)n1 [Example 185, 4-N-methyl-6-[2-(trifluoromethyl)pyridin-3-yl]pyrimidine-2,4-diamine]",< 200 nM
9,"CNc1cc(-c2ccc(OCc3ccccc3)cc2C)nc(N)n1 [Example 187, 6-[4-(benzyloxy)-2-methylphenyl]-4-N-methylpyrimidine-2,4-diamine]",< 200 nM
10,"CNc1cc(-c2cc(C)c(OC)cc2C)nc(N)n1 [Example 188, 6-(4-methoxy-2,5-dimethylphenyl)-4-N-methylpyrimidine-2,4-diamine]",< 200 nM
11,"CNc1cc(-c2cc(C)c(C)cc2C)nc(N)n1 [Example 189, 4-N-methyl-6-(2,4,5-trimethylphenyl)pyrimidine-2,4-diamine]",< 200 nM
12,"CNc1cc(-c2cc(Cl)ccc2C#N)nc(N)n1 [Example 190, 2-[2-amino-6-(methylamino)pyrimidin-4-yl]-4-chlorobenzonitrile]",< 200 nM
13,"CNc1cc(-c2cc(Cl)c(Cl)cc2C)nc(N)n1 [Example 191, 6-(4,5-dichloro-2-methylphenyl)-4-N-methylpyrimidine-2,4-diamine]",< 200 nM
14,"CNc1cc(-c2cc(C)c(F)cc2C)nc(N)n1 [Example 193, 6-(4-fluoro-2,5-dimethylphenyl)-4-N-methylpyrimidine-2,4-diamine]",< 200 nM
15,"CNc1cc(-c2cc(C(F)(F)F)ccc2C)nc(N)n1 [Example 194, 4-N-methyl-6-[2-methyl-5-(trifluoromethyl)phenyl]pyrimidine-2,4-diamine]",< 200 nM
16,"CNc1cc(-c2cc(Cl)c(C(F)(F)F)cc2C)nc(N)n1 [Example 195, 6-[5-chloro-2-methyl-4-(trifluoromethyl)phenyl]-4-N-methylpyrimidine-2,4-diamine]",< 200 nM
17,"CNc1cc(-c2cc(C(F)(F)F)ccc2C(F)(F)F)nc(N)n1 [Example 196, 6-[2,5-bis(trifluoromethyl)phenyl]-4-N-methylpyrimidine-2,4-diamine]",< 200 nM
18,"CNc1cc(-c2cc(C)ccc2F)nc(N)n1 [Example 200, 6-(2-fluoro-5-methylphenyl)-4-N-methylpyrimidine-2,4-diamine]",< 200 nM
19,"CNc1cc(-c2cc(C)ccc2OC)nc(N)n1 [Example 204, 6-(2-methoxy-5-methylphenyl)-4-N-methylpyrimidine-2,4-diamine]",< 200 nM
20,"CNc1cc(-c2cc(F)ccc2Cl)nc(N)n1 [Example 205, 6-(2-chloro-5-fluorophenyl)-4-N-methylpyrimidine-2,4-diamine]",< 200 nM
21,"CNc1cc(-c2cc(C#N)ccc2F)nc(N)n1 [Example 206, 3-[2-amino-6-(methylamino)pyrimidin-4-yl]-4-fluorobenzonitrile]",< 200 nM
22,"CNc1cc(-c2cc(OC)ccc2Cl)nc(N)n1 [Example 207, 6-(2-chloro-5-methoxyphenyl)-4-N-methylpyrimidine-2,4-diamine]",< 200 nM
